Measurements as given in patent US9206134B2, “Polymorphic forms of compounds as prolyl hydroxylase inhibitor, and uses thereof” (BEIJING BETTA PHARMACEUTICALS CO. LTD., priority 2011, dated 2015).

Legend:
Erythropoietin (EPO) = Erythropoietin (EPO) induction in normal mice; format: in vivo; details: male C57BL/6 mice, oral suspension in 0.5% CMC, serum 6 hours after dosing
Protocol: Eight-week-old male C57BL/6 mice were dosed orally with a suspension of one crystal form of the compound in 0.5% CMC at 20, 60 and 100 mg/kg. Blood samples were obtained from the orbital venous plexus 6 hours after dosing and serum was collected (see also, Robinson A, et al., Gastroenterology. 2008, 134:145-55; Hsieh M M, et al., Blood. 2007, 110:2140-7). Samples were analyzed for EPO by electrochemiluminescence-based immunoassay (MSD) according to manufacturer's instructions. The inducted EPOs when the Crystalline Form VI in this invention was used in suspension were determined to be around 6, 297 and above 300 folds over that of the vehicle group without induction.

[1] = Stability determination of crystal forms (competitive slurry in isopropyl acetate); format: physicochemical; details: Forms IV and VI stirred together in isopropyl acetate solution of compound of Formula I, room temperature, 36 hrs; resulted crystal form purely Form VI
Protocol: 9.6 mg of the Crystalline Form IV and 1.97 mg of the Crystalline Form VI disclosed in this invention were then added into the solution and stirred at room temperature for 36 hrs. After centrifugation and drying, the resulted crystal form was determined to be purely the Crystalline Form VI.

For `Cc1nc(C(=O)NCC(=O)O)c(O)c2ccc(Oc3ccccc3)cc12` [Crystalline Form VI], the “inducted EPO over that of the vehicle group” value (shortened to “inducted EPO over that”) (Erythropoietin (EPO); 20 mg/kg) was “around 6 folds”, the “inducted EPO over that” value (Erythropoietin (EPO); 60 mg/kg) was ~297 folds and the “inducted EPO over that” value (Erythropoietin (EPO); 100 mg/kg) was “above 300 folds”. The “thermodynamic stability of crystal form” value [1] was “thermodynamically the most stable crystal form”.
